Values of other authors in patent US7825135B2, “Heteroaryl piperidine glycine transporter inhibitors” (Merck Sharp & Dohme Limited, priority 2004, dated 2010).

Key:
[1] = high doses, oral, add-on to standard neuroleptic therapy
[2] = schizophrenia patients poorly responsive to antipsychotic drugs
[3] = mice
NMDA receptor = conditions: rat; blockade of GlyT1

NCC(=O)O [glycine]
effect on symptoms of schizophrenia patients [1]: improvement of the symptoms

CNCC(=O)O [sarcosine]
effect on positive, negative and cognitive symptoms [2]: beneficial effect

CN(CCC(Oc1ccc(-c2ccccc2)cc1)c1ccc(F)cc1)CC(=O)O (stereo not shown) [NFPS]
effect on pre-pulse inhibition (sensory gating) [3]: enhance pre-pulse inhibition
effect on NMDA receptor activity and NMDA receptor-dependent long-term potentiation (NMDA receptor): potentiates NMDA receptor activity and NMDA receptor-dependent long-term potentiation
